Reference: US20230295157A1, “3-(1H-IMIDAZOL-2-YL)-2,3,8,8A-TETRAHYDROINDOLIZIN-5(1H)-ONE DERIVATIVES USEFUL AS FACTOR XIA INHIBITORS” (JANSSEN PHARMACEUTICA NV, priority 2020, published 2023)
Like-named read-outs stand apart in the source and are kept apart here.

Experiments:
human plasma kallikrein = human plasma kallikrein (Homo sapiens (Human), UniProt P03952); assay: Kallikrein inhibition assay (FLINT) utilizing a quenched AMC peptide substrate; type: biochemical; settings: 30 min preincubation, read-out: Kallikrein Kin Inh IC50
Procedure, shortened: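 Fluorogenic Z-Gly-Pro-Arg-AMC cleavage (50 μM substrate, 2 nM kallikrein, Tris pH 7.5, CaCl2, BSA, CHAPS, 2% DMSO) read kinetically at 340/440 nm for 30 min after 30-min compound pre-incubation. Compounds in 11-point 3-fold series from 1 μM; percent inhibition fitted to four-parameter equation for IC50.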

Factor XIa = Factor XIa (Homo sapiens (Human), UniProt P03951); assay: Factor XIa inhibition assay (FLINT) utilizing a fluorophore-quencher pair peptide substrate; type: biochemical; settings: 30 min preincubation, read-out: FXIa Kin Inh IC50
Procedure, shortened: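 FXIa ([…]) preincubated 30 min with compound (11-point 3-fold dilution, top 100 nM, 2% DMSO), then 15 μM quenched FXI Arg146-based peptide added; Tris pH 7.5, CaCl2, BSA, CHAPS. Fluorescence 485/520 nm read kinetically every 5 min over 30 min at RT; IC50 by 4-parameter fit.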

[1] = kinetic reads over 30 min, Z-Gly-Pro-Arg-AMC substrate 50 μM
[2] = kinetic reads over 30 min, 5Fam-KLTRAETV-K5Tamra substrate 15 μM
[3] = kinetic reads over 30 min, 5Fam-[…]-K5Tamra substrate 15 μM

Factor XIa, sequence (P03951 388-625): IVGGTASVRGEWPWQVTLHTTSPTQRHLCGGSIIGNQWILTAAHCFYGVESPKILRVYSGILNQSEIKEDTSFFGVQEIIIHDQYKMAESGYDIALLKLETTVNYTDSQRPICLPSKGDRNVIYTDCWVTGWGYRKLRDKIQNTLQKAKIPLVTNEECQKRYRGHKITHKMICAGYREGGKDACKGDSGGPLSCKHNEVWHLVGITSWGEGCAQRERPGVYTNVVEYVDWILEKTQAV
Factor XIa, sequence (P03951 19-387 partner): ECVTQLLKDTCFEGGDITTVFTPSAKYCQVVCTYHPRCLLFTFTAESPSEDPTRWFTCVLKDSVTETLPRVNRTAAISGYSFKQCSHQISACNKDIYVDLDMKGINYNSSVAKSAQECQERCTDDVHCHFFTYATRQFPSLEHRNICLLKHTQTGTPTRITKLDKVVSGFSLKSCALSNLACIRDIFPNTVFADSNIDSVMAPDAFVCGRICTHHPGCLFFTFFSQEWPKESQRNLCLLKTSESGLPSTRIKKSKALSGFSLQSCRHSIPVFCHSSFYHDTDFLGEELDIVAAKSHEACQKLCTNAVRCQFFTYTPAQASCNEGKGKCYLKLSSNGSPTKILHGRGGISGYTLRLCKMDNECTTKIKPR
human plasma kallikrein, sequence (P03952 391-638): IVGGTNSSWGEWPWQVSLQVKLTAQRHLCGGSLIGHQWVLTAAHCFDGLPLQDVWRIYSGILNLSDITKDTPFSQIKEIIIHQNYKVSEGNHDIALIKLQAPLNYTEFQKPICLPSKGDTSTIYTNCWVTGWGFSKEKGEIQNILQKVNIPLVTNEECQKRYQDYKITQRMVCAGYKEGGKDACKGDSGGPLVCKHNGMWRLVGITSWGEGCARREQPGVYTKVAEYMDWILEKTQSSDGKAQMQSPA
human plasma kallikrein, sequence (P03952 20-390 partner): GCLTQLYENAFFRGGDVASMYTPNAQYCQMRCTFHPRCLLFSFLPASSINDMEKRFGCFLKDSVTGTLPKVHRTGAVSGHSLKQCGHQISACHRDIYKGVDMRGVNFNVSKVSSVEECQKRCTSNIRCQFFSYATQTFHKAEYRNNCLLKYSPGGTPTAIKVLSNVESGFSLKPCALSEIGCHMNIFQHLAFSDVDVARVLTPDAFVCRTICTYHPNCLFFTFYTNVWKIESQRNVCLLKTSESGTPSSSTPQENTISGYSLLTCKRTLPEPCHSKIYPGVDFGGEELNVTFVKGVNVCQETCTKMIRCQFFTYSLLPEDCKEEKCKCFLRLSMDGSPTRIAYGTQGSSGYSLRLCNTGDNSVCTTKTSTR

| Structure (SMILES) | IC50 (human plasma kallikrein; [1]) | IC50 (Factor XIa; [2]) | IC50 (Factor XIa; [3]) | IC50 (Factor XIa; μM, kinetic reads) | IC50 (human plasma kallikrein; μM, kinetic reads) |
| --- | --- | --- | --- | --- | --- |
| [2H]c1nc([C@@H]2CC[C@@H]3CC(c4c(-n5cnnn5)ccc(Cl)c4F)=CC(=O)N32)[nH]c1-c1ccnc(CO)c1F [Example 117, (3S,8aR)-7-(3-chloro-2-fluoro-6-(1H-tetrazol-1-yl)phenyl)-3-(5-(3-fluoro-2-(hydroxymethyl)pyridin-4-yl)-1H-imidazol-2-yl-4-d)-2,3,8,8a-tetrahydroindolizin-5(1H)-one] | 0.0248 µM | 0.0029 µM | – | – | – |
| O=C1OCCN1c1ccc(-c2cnc([C@@H]3CCC4CC(c5c(-n6cnnn6)ccc(Cl)c5F)=CC(=O)N43)[nH]2)cc1 (stereo partly drawn) [Example 318, 3-(4(2-((3S)-7-(3-Chloro-2-fluoro-6-(1H-tetrazol-1-yl)phenyl)-5-oxo-1,2,3,5,8,8a-hexahydroindolizin-3-yl)-1H-imidazol-5-yl)phenyl)oxazolidin-2-one] | 0.0715 µM | 0.0541 µM | – | – | – |
| O=C1C=C(c2c(C(F)F)ccc(Cl)c2F)C[C@H]2CC[C@@H](c3ncc(-c4ccnc(CO)c4F)[nH]3)N12 [Example 26, (3S,8aR)-7-(3-Chloro-6-(difluoromethyl)-2-fluorophenyl)-3-(5-(3-fluoro-2-(hydroxymethyl)pyridin-4-yl)-1H-imidazol-2-yl)-2,3,8,8a-tetrahydroindolizin-5(1H)-one] | 0.27 µM | – | > 0.1 µM | – | – |
| NC(=O)c1ccc(-c2cnc([C@@H]3CC[C@@H]4CC(c5c(-n6cnnn6)ccc(Cl)c5F)=CC(=O)N43)[nH]2)c(Cl)n1 [Example 229, 6-Chloro-5-(2-((3S,8aR)-7-(3-chloro-2-fluoro-6-(1H-tetrazol-1-yl)phenyl)-5-oxo-1,2,3,5,8,8a-hexahydroindolizin-3-yl)-1H-imidazol-5-yl)picolinamide] | 0.342 µM | 0.0549 µM | – | – | – |
| C[C@H](O)c1nccc(-c2[nH]c([C@@H]3CC[C@@H]4CC(c5cc(Cl)ccc5-n5cnnn5)=CC(=O)N43)nc2F)c1F (relative stereo) [Example 46, (3S,8aR)-7-(5-chloro-2-(1H-tetrazol-1-yl)phenyl)-3-(4-fluoro-5-(3-fluoro-2-((S*)-1-hydroxyethyl)pyridin-4-yl)-1H-imidazol-2-yl)-2,3,8,8a-tetrahydroindolizin-5(1H)-one] | 0.0355 µM | – | 0.0054 µM | – | – |
| CO[C@@H]1C[C@@H](c2nc(-c3ccc(N)nc3F)c[nH]2)N2C(=O)C=C(c3c(-n4cnnn4)ccc(Cl)c3F)CC12 (stereo partly drawn) [Example 327, (1R,3S)-3-(4-(6-Amino-2-fluoropyridin-3-yl)-1H-imidazol-2-yl)-7-(3-chloro-2-fluoro-6-(1H-tetrazol-1-yl)phenyl)-1-methoxy-2,3,8,8a-tetrahydroindolizin-5(1H)-one] | 0.0095 µM | 0.0006 µM | – | – | – |
| O=C1CCCN1c1nccc(-c2cnc([C@@H]3CC[C@@H]4CC(c5c(-n6cnnn6)ccc(Cl)c5F)=CC(=O)N43)[nH]2)c1F [Example 106, (3S,8aR)-7-(3-chloro-2-fluoro-6-(1H-tetrazol-1-yl)phenyl)-3-(5-(3-fluoro-2-(2-oxopyrrolidin-1-yl)pyridin-4-yl)-1H-imidazol-2-yl)-2,3,8,8a-tetrahydroindolizin-5(1H)-one] | 0.027 µM | 0.011 µM | – | – | – |
| CC(C)[C@H](N)C(=O)OCc1nccc(-c2cnc([C@@H]3CC[C@@H]4CC(c5c(-n6cnnn6)ccc(Cl)c5F)=CC(=O)N43)[nH]2)c1F [Example 75, [4-[2-[(3S,8aR)-7-[3-chloro-2-fluoro-6-(tetrazol-1-yl)phenyl]-5-oxo-2,3,8,8a-tetrahydro-1H-indolizin-3-yl]-1H-imidazol-5-yl]-3-fluoro-2-pyridyl]methyl (2S)-2-amino-3-methyl-butanoate] | 0.0383 µM | 0.0043 µM | – | – | – |
| CC1CC2CC(c3c(-n4cnnn4)ccc(Cl)c3F)=CC(=O)N2C1c1ncc(-c2ccc(N)nc2F)[nH]1 (stereo not shown) [Example 328, 3-(5-(6-Amino-2-fluoropyridin-3-yl)-1H-imidazol-2-yl)-7-(3-chloro-2-fluoro-6-(1H-tetrazol-1-yl)phenyl)-2-methyl-2,3,8,8a-tetrahydroindolizin-5(1H)-one] | 0.0459 µM | 0.0034 µM | – | – | – |

The next lines start with the values.

| IC50 (human plasma kallikrein; [1]) | IC50 (Factor XIa; [2]) | IC50 (Factor XIa; [3]) | IC50 (Factor XIa; μM, kinetic reads) | IC50 (human plasma kallikrein; μM, kinetic reads) | Structure (SMILES) |
| --- | --- | --- | --- | --- | --- |
| 0.0074 µM | 0.0024 µM | – | – | – | O=C1C=C(c2c(-n3cnnn3)ccc(Cl)c2F)C[C@H]2CC[C@@H](c3ncc(-c4c[nH]c5cnccc45)[nH]3)N12 (single isomer, unassigned) [Example 19] |
| 0.0127 µM | – | 0.0015 µM | – | – | CC1(C)C[C@@H](c2ncc(-c3ccc(N)nc3F)[nH]2)N2C(=O)C=C(c3c(-n4cnnn4)ccc(Cl)c3F)C[C@H]21 (relative stereo) [Example 337, (3S,8aS)-3-(5-(6-Amino-2-fluoropyridin-3-yl)-1H-imidazol-2-yl)-7-(3-chloro-2-fluoro-6-(1H-tetrazol-1-yl)phenyl)-1,1-dimethyl-2,3,8,8a-tetrahydroindolizin-5(1H)-one] |
| 0.0155 µM | 0.0225 µM | – | – | – | CCN(CCO)c1nccc(-c2cnc([C@@H]3CC[C@H]4CC(c5c(-n6cnnn6)ccc(Cl)c5F)=CC(=O)N43)[nH]2)c1F (single isomer, unassigned) [Example 135, (3S,8a*S)-7-(3-chloro-2-fluoro-6-(1H-tetrazol-1-yl)phenyl)-3-(5-(2-(ethyl(2-hydroxyethyl)amino)-3-fluoropyridin-4-yl)-1H-imidazol-2-yl)-2,3,8,8a-tetrahydroindolizin-5(1H)-one] |
| 0.0025 µM | 0.0009 µM | – | – | – | NC(=O)c1ccc(-c2nc([C@@H]3CC[C@@H]4CC(c5c(-n6cc(C(F)(F)F)nn6)ccc(Cl)c5F)=CC(=O)N43)[nH]c2Cl)s1 [Example 203, 5-(5-Chloro-2-((3S,8aR)-7-(3-chloro-2-fluoro-6-(4-(trifluoromethyl)-1H-1,2,3-triazol-1-yl)phenyl)-5-oxo-1,2,3,5,8,8a-hexahydroindolizin-3-yl)-1H-imidazol-4-yl)thiophene-2-carboxamide] |
| 0.455 µM | – | – | 2.2 µM | – | COC(=O)Nc1ccc(-c2cnc([C@@H]3CC[C@H]4CC(c5c(F)ccc(Cl)c5OC(F)F)=CC(=O)N43)[nH]2)cc1 (relative stereo) [Example 319, Methyl (4-(2-((3S,8aS)-7-(3-Chloro-2-(difluoromethoxy)-6-fluorophenyl)-5-oxo-1,2,3,5,8,8a-hexahydroindolizin-3-yl)-1H-imidazol-5-yl)phenyl)carbamate] |
| 0.0095 µM | 0.0013 µM | – | – | – | O=C1C=C(c2c(-n3cnnn3)ccc(Cl)c2F)C[C@H]2CC[C@@H](c3ncc(-c4ccnc5c4CCO5)[nH]3)N12 [Example 386, (3S,8aR)-7-(3-chloro-2-fluoro-6-(1H-tetrazol-1-yl)phenyl)-3-(5-(2,3-dihydrofuro[2,3-b]pyridin-4-yl)-1H-imidazol-2-yl)-2,3,8,8a-tetrahydroindolizin-5(1H)-one] |
| – | 0.134 µM | – | – | 2.05 µM | Cn1nncc1-c1c[nH]c([C@@H]2CCC3CC(c4c(-n5cnnn5)ccc(Cl)c4F)=CC(=O)N32)n1 (stereo partly drawn) [Example 339, (3S)-7-(3-Chloro-2-fluoro-6-(1H-tetrazol-1-yl)phenyl)-3-(4-(1-methyl-1H-1,2,3-triazol-5-yl)-1H-imidazol-2-yl)-2,3,8,8a-tetrahydroindolizin-5(1H)-one] |
| 0.0285 µM | 0.004 µM | – | – | – | N#CCc1nccc(-c2c[nH]c([C@@H]3CC[C@@H]4CC(c5c(-n6cnnn6)ccc(Cl)c5F)=CC(=O)N43)n2)c1F [Example 176, 2-(4-(2-((3S,8aR)-7-(3-chloro-2-fluoro-6-(1H-tetrazol-1-yl)phenyl)-5-oxo-1,2,3,5,8,8a-hexahydroindolizin-3-yl)-1H-imidazol-4-yl)-3-fluoropyridin-2-yl)acetonitrile] |
